Source: ChEMBL document CHEMBL5678818, “Discovery of potent SOS1 inhibitors that block RAS activation via disruption of the RAS-SOS1 interaction” (Proc Natl Acad Sci U S A, 2019)

Tests used:
[1] = biological target: Receptor-type tyrosine-protein kinase FLT3 (Homo sapiens) (UniProt P36888); experiment: Inhibition of FLT3 (unknown origin) assessed as residual activity at 1000 nM by KINOMEscan analysis relative to control
[2] = biological target: Protein kinase C theta type (Homo sapiens) (UniProt Q04759); experiment: Inhibition of PRKCQ (unknown origin) assessed as residual activity at 1000 nM by KINOMEscan analysis relative to control
[3] = biological target: Calcium/calmodulin-dependent protein kinase kinase 2 (Homo sapiens) (UniProt Q96RR4); experiment: Inhibition of CAMKK2 (unknown origin) assessed as residual activity at 1000 nM by KINOMEscan analysis relative to control
[4] = biological target: Mitogen-activated protein kinase 11 (Homo sapiens) (UniProt Q15759); experiment: Inhibition of p38-beta (unknown origin) assessed as residual activity at 1000 nM by KINOMEscan analysis relative to control
[5] = biological target: T1, Dual specificity mitogen-activated protein kinase kinase 5 (Homo sapiens) (UniProt Q13163); experiment: Inhibition of MEK5 (unknown origin) assessed as residual activity at 1000 nM by KINOMEscan analysis relative to control
T1 sequence (whole entry): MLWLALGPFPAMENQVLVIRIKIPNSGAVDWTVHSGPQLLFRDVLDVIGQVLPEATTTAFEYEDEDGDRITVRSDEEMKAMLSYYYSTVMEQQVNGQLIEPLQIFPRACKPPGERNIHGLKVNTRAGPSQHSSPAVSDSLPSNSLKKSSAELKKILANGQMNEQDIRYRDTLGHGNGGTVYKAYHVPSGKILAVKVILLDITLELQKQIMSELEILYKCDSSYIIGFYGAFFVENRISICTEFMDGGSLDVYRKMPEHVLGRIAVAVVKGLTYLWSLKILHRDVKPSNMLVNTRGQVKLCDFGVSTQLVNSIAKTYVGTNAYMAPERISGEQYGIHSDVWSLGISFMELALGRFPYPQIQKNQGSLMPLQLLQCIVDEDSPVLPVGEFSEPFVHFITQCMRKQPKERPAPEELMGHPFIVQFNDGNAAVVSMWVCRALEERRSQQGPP

[6] = biological target: T2, Receptor-interacting serine/threonine-protein kinase 1 (Homo sapiens) (UniProt Q13546); experiment: Inhibition of RIPK1 (unknown origin) assessed as residual activity at 1000 nM by KINOMEscan analysis relative to control
T2 sequence (whole entry): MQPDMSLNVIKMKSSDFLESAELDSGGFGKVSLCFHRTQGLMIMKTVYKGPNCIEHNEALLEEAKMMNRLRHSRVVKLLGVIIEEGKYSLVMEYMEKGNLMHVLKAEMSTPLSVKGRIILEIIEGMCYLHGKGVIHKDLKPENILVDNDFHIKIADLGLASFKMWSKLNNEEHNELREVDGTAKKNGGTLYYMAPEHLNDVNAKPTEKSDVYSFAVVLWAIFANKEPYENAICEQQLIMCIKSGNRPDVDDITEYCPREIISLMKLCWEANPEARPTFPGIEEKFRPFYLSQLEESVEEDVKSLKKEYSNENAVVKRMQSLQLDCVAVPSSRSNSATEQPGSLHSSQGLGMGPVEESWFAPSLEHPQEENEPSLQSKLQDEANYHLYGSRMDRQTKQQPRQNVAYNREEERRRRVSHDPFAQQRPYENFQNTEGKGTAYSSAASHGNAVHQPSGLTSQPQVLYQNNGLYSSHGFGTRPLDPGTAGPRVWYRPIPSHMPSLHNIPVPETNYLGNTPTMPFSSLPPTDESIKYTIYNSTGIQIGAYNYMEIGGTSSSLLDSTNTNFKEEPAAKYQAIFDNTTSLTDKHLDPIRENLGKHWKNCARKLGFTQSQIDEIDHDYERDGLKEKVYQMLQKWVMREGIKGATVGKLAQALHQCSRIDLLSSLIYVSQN

[7] = biological target: Tyrosine-protein kinase SYK (Homo sapiens) (UniProt P43405); experiment: Inhibition of SYK (unknown origin) assessed as residual activity at 1000 nM by KINOMEscan analysis relative to control
[8] = tested on: ALK tyrosine kinase receptor (Homo sapiens), Q9UM73 [L1196M]; experiment: Inhibition of ALK L1196M mutant (unknown origin) assessed as residual activity at 1000 nM by KINOMEscan analysis relative to control
[9] = biological target: T3, Muscle, skeletal receptor tyrosine-protein kinase (Homo sapiens) (UniProt O15146); experiment: Inhibition of MUSK (unknown origin) assessed as residual activity at 1000 nM by KINOMEscan analysis relative to control
T3 sequence (whole entry): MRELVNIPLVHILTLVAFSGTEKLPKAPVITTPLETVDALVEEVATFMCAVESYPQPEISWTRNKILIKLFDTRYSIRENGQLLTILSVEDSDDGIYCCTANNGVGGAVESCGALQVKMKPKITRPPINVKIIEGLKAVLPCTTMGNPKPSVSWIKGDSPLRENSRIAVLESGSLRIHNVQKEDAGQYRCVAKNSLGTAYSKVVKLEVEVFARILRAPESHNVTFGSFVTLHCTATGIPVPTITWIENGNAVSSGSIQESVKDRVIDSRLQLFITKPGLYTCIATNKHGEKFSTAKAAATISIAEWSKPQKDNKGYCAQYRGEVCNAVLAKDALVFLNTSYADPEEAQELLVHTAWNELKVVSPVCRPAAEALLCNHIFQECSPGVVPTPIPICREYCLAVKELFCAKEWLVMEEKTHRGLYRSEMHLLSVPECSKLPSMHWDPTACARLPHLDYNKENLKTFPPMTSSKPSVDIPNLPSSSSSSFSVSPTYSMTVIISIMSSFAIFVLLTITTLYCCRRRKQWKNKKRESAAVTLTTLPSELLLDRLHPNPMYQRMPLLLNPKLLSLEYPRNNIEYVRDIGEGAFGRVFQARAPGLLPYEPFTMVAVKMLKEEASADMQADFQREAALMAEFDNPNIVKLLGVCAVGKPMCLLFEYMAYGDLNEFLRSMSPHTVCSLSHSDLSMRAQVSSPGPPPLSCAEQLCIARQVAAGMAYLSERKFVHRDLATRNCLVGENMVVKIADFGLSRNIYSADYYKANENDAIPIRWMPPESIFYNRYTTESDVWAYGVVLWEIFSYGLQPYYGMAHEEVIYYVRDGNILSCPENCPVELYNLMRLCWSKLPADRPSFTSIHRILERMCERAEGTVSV

Chain of Calcium/calmodulin-dependent protein kinase kinase 2 (Homo sapiens) (Q96RR4 2-588 limits assumed): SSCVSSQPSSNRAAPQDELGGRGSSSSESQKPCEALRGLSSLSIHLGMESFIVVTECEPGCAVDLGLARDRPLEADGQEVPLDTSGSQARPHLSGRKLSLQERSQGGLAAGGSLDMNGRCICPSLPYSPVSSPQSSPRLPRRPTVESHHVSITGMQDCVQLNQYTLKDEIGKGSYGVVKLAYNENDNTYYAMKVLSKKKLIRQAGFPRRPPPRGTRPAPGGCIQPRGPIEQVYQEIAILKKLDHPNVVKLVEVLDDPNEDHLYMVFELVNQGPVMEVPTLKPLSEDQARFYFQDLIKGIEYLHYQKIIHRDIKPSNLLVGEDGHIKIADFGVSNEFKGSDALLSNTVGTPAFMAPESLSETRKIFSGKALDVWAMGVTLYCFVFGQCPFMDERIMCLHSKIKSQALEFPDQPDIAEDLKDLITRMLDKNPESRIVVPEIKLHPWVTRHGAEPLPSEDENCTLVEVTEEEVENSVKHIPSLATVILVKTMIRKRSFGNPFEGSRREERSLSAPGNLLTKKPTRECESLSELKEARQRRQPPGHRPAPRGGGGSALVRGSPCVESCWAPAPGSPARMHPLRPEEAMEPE
Chain of ALK tyrosine kinase receptor (Homo sapiens), Q9UM73 [L1196M] (Q9UM73 whole entry L1196M, looked up): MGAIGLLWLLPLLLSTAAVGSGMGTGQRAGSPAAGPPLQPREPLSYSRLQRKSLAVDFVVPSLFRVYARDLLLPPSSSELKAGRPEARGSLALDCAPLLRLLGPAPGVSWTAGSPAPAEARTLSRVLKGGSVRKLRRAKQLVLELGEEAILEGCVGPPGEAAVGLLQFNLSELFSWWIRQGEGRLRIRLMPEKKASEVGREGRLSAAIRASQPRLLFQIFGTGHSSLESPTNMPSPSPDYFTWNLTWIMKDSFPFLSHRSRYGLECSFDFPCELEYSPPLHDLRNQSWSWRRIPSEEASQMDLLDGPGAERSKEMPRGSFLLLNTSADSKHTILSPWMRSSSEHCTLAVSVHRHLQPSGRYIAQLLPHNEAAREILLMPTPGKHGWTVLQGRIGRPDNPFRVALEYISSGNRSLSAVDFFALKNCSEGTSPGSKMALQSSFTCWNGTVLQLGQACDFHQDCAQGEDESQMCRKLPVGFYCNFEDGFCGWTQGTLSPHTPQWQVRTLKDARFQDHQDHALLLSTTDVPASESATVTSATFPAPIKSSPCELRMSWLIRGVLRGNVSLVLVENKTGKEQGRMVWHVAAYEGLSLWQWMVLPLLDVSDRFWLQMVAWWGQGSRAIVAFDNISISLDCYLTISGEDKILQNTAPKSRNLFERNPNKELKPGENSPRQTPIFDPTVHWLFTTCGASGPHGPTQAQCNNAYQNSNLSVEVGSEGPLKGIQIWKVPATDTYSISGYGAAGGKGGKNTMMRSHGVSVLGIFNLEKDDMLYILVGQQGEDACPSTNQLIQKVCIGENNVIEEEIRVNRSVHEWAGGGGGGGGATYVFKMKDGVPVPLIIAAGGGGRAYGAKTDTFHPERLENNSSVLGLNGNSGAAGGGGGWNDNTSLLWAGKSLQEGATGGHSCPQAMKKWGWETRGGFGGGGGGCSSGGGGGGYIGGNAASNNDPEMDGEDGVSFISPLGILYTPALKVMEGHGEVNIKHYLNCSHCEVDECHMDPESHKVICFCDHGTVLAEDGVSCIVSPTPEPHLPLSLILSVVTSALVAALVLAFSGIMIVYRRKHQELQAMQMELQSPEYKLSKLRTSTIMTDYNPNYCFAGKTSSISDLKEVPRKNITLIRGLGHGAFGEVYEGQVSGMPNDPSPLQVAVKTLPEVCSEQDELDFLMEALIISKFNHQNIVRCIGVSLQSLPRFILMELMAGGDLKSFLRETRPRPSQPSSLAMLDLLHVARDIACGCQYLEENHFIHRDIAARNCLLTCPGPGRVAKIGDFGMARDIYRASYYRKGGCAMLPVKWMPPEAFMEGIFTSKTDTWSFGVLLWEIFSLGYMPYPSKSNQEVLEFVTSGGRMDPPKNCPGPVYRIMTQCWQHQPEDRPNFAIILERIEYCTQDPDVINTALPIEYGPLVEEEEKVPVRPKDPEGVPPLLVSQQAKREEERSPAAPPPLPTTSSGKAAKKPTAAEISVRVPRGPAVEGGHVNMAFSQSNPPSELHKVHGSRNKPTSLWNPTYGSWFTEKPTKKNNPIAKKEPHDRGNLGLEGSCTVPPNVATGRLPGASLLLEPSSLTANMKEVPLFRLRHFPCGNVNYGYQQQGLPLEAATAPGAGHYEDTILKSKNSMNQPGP
Chain of Protein kinase C theta type (Homo sapiens) (Q04759 whole entry, looked up): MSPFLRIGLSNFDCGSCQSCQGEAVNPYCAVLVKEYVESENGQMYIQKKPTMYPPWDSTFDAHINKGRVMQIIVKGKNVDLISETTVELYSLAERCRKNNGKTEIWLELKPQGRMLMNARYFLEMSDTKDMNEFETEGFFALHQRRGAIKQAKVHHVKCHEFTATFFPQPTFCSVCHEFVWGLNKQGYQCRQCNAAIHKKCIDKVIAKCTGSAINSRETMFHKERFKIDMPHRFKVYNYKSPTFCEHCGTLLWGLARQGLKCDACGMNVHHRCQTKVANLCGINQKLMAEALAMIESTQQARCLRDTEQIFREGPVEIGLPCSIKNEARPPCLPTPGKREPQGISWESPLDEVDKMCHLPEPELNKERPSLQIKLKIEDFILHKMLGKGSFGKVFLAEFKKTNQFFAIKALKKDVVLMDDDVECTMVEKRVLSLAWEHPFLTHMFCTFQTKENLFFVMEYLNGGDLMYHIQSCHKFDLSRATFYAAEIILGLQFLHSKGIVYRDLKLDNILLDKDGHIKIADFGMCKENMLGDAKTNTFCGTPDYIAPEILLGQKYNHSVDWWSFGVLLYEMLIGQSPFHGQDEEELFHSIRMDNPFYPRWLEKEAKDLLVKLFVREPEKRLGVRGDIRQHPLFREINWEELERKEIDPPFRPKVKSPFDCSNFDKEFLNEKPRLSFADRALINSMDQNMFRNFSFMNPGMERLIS
Chain of Receptor-type tyrosine-protein kinase FLT3 (Homo sapiens) (P36888 whole entry): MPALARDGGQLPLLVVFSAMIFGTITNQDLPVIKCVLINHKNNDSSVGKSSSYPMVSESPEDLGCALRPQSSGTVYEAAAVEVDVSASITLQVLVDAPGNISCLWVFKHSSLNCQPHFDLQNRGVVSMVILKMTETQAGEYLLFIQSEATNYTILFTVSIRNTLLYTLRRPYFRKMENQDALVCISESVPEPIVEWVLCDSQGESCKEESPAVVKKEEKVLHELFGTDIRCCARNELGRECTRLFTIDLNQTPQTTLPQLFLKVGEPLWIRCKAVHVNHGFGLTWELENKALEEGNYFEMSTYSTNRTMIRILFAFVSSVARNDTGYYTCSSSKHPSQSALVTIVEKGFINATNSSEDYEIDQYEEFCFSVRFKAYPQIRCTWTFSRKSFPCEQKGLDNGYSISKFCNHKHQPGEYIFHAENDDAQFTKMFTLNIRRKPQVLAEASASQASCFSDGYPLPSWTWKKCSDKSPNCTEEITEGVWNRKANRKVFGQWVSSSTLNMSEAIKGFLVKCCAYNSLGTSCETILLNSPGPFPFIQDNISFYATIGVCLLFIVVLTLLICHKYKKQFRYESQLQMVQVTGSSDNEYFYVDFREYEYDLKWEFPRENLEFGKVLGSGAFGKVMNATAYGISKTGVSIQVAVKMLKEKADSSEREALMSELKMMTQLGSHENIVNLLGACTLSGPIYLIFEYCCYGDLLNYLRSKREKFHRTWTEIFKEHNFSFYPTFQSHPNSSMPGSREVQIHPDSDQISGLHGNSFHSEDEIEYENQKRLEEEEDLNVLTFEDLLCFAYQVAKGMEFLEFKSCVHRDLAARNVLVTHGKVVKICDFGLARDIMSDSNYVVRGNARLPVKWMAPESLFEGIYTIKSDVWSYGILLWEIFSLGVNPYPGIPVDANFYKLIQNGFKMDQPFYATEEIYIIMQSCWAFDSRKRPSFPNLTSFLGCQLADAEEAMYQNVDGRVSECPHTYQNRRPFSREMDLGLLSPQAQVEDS
Chain of Mitogen-activated protein kinase 11 (Homo sapiens) (Q15759 whole entry): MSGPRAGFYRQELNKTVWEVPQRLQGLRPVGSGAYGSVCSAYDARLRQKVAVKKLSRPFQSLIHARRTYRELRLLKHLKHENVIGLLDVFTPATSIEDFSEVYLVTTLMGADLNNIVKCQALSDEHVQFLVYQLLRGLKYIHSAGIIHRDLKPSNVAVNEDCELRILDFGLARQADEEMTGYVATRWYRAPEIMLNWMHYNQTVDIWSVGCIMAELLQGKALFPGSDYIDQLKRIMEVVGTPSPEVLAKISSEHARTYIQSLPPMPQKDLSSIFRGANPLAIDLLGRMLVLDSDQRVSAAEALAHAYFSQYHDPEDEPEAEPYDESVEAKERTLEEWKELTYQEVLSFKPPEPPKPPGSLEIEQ

Structure (SMILES)	Activity [1] [%]	Activity [2] [%]	Activity [3] [%]	Activity [4] [%]	Activity [5] [%]	Activity [6] [%]	Activity [7] [%]	Activity [8] [%]	Activity [9] [%]
COc1cc2nc(C)nc(N[C@H](C)c3cccc(-c4cn[nH]c4)c3)c2cc1OC	78	84	65	97	61	85	76	67	91
COc1cc2ncnc(N[C@H](C)c3cccc4ccccc34)c2cc1OC	93	100	92	96	89	93	100	80	97
